Consider six molecules from US10253355B2, “Instrument and system for rapid microorganism identification and antimicrobial agent susceptibility testing” (Accelerate Diagnostics, Inc., priority 2015, dated 2019).

Assay [1] relates to methicillin-susceptible S. aureus (MSSA). The assay can be described thus: Time-lapse imaging of isolates growing in cefoxitin (MSSA). It is filed as cell-based. Conditions: by 4.5 hours (FIG. 90). Here is the method: (§1) The results of the identification assay drive antibiotic selection for antimicrobial susceptibility testing. The remaining samples undergo a pre-growth step to normalize growth rates during the approximately 1-hour FISH ID assay. The concentration of organisms in the purified inoculum was determined by repeating the quantitation process with a universal nucleic acid stain as previously described herein. […] Following cell immobilization, antimicrobial solutions in Mueller-Hinton agar were dispensed into the flowcells. Different antimicrobials were tested in separate flowcells, and only a single concentration of each antimicrobial was used. A growth control consisting of Mueller-Hinton agar without any antimicrobial was included for each run. A dark-field microscope and camera produced time-lapse images approximately every 10 minutes of progenitor cells growing into clones of daughter cells in each flowcell. The agar ensured daughter cells were immobilized and remained localized to each growing clone. Resistant clones grew while susceptible clones arrest or lyse over time (FIG. 90).

Assay [2] has as its system Staphylococcus aureus ATCC 29213. To be noted: cited from earlier work.
For assay [3] the test system is unchanged. The assay can be described thus: AST QC assay on AD-1 instrument, QC isolate S. aureus ATCC 29213. It is filed as cell-based. To be noted: for Result (phenotypic positive/negative test): resistance phenotype; for Result (MIC value): unit assumed.
Source text: (§2) The reportable range for the AST QC assay in some examples are adjusted such that the selected QC isolates have an MIC that is within the reportable range of the QC Assay. These extended ranges are only applied to QC testing and are not applied to AST assessment of patient samples. The process for assigning an MIC value to the QC organisms is the same or similar to that used for patient samples. […] This approach allows testing of, for example, CLSI recommended QC isolates without affecting the algorithms that are optimized around antimicrobial breakpoints. The algorithms used in ID QC or AST QC testing include those described above, for example, when the QC test samples are microbial isolates. For ID QC testing utilizing target microbial nucleic acids coupled to a bead, positive detection is achieved by comparing the cumulative count in the target (e.g., Green fluorescence channel) only against a threshold of objects that have brightness exceeding bead autofluorescence. Negative control detection is achieved by doing the same for eubacteria (e.g., Red fluorescence) channel only. For example, the number of bright red objects should not exceed a threshold in order to pass negative control.
In addition, the CLSI required QC isolates for the relevant antimicrobial resistance phenotype assays (MRSA/MSA, and MLSb) may also be tested. When following CLSI recommendations, routine testing of a designated susceptible isolate as well as testing of designated resistant isolates for each new lot and/or new shipment of reagent kits should be performed. These isolates, therefore, may be included in the QC Assay. For example, Cefoxitin may be tested with Staphylococcus aureus ATCC 29213 as the susceptible isolate and Staphylococcus aureus ATCC 43300 may be tested as the resistant isolate.
as §1
Custom image analysis software assigned unique spatial XY coordinates to individual progenitor cells (FIG. 91), allowing each growing clone across a series of time-lapse images to be identified. The intensity of each clone can be used as a metric of clone mass in each image. By measuring over time, this metric was used to generate growth curves for each individual clone (FIG. 92). The pattern of cell responses was used to determine the susceptibility of the overall population. […]

Assay [4] deals with Staphylococcus aureus ATCC 43300. The experiment in a line: AST QC assay on AD-1 instrument, QC isolate S. aureus ATCC 43300. The class given is cell-based. Conditions: resistance phenotype.
Source text: as §2, with “For example, the number of bright red objects should not exceed a threshold in order to pass negative control.” left out
The results of the identification assay drive antibiotic selection for antimicrobial susceptibility testing. […] The concentration of organisms in the purified inoculum was determined by repeating the quantitation process with a universal nucleic acid stain as previously described herein. […]

Assay [5] relates to methicillin-resistant S. aureus (MRSA). The experiment in a line: Time-lapse imaging of isolates growing in cefoxitin (MRSA). The class given is cell-based. Conditions: by 4.5 hours (FIG. 90). Here is the method: as §1
For assay [6], the system named is Staphylococcus aureus ATCC 43300. Conditions: S. aureus ATCC 43300, cited from earlier work.
Assay [7] deals with Escherichia coli ATCC 35218. The assay can be described thus: AST QC assay on AD-1 instrument, QC isolate E. coli ATCC 35218. The class given is cell-based. Conditions: unit assumed.
Source text: as §2
as §1, with “A dark-field microscope and camera produced time-lapse images approximately every 10 minutes of progenitor cells growing into clones of daughter cells in each flowcell. The agar ensured daughter cells were immobilized and remained localized to each growing clone. Resistant clones grew while susceptible clones arrest or lyse over time (FIG. 90).” left out

The test system of another assay is Pseudomonas strains. The assay can be described thus: Growth of Pseudomonas strains in nutrient-depleted vs standard Mueller-Hinton media with antibiotic, automated microscopy. It is filed as cell-based. The procedure: A series of growth media was formulated with […] strength of standard Mueller-Hinton nutrients (3 g beef infusion 17.5 g casein hydrolysate, 1.5 g starch, the final product being pH adjusted to neutral at 25° C.) while maintaining the agar concentration at 0.94% in the culture media. The effect of this depleted-nutrient media formulation on bacterial cell growth was evaluated with more than 50 strains of Pseudomonas in the presence of a panel of beta-lactam antibiotics. Cells were imaged using automated microscopy as described above. […] FIGS. 85A-C plots the log of bacterial dark phase intensity versus time, which is proportional to measuring cell mass in culture. FIGS. 85D-F are a quantitative representation of the data presented in panels FIGS. 85A-C expressed as rate of bacterial cell division.

For assay [8], the system named is Escherichia coli ATCC 25922. To be noted: in µg/mL (unit assumed), cited from earlier work; for Expected (MIC acceptance range): E. coli ATCC 25922.
For assay [9], the system named is Escherichia coli ATCC 25922. The experiment in a line: AST QC assay on AD-1 instrument, QC isolate E. coli ATCC 25922. The class given is cell-based. To be noted: unit assumed.
Source text: as §2, §1
Custom image analysis software assigned unique spatial XY coordinates to individual progenitor cells (FIG. 91), allowing each growing clone across a series of time-lapse images to be identified. The intensity of each clone can be used as a metric of clone mass in each image. By measuring over time, this metric was used to generate growth curves for each individual clone (FIG. 92). The pattern of cell responses was used to determine the susceptibility of the overall population. Computer algorithms developed for each organism-antimicrobial combination convert microbial growth response into an MIC value using a mathematical regression model based on the response of isolates with known MICs for a single-concentration of a given antimicrobial. Once obtained, MIC values were interpreted using FDA, CLSI or EUCAST breakpoints along with expert rules to determine the categorical result (susceptible (S), intermediate (I) or resistant (R)). In addition to MICs, this technique was applied to phenotypic resistance mechanism detection.
In this example, the AST QC consumable insert consisted of 8 wells configured in a “pi” shape, as shown in the dark gray shading in FIG. 109. The AST QC panel was composed of seven CLSI recommended isolates that provide “on-scale” MIC results for all of the antimicrobial agents included in a sample blood culture test. A C. albicans isolate was used for Quality Control assessment of the […] component of the AD-1 Instrument System.
Table 9 below lists each organism and the corresponding antimicrobial agent that was tested in the AST QC assay. […]

Where two headings read alike, the source gives them in different places.

Turning to `CO[C@@]1(NC(=O)Cc2cccs2)C(=O)N2C(C(=O)O)=C(COC(N)=O)CS[C@@H]21` [Cefoxitin], the “Clone growth in time-lapse images” value in assay [1] is recorded as “arrested or lysed”; in assay [5], “continue to grow”. The “Organism QC Range (Positive/Negative phenotype)” value in assay [2] (AST QC panel (Table 9), S. aureus ATCC 29213) is given as “Negative”; in assay [6] (AST QC panel (Table 9)), “Positive”. Also, the “Expected (phenotypic positive/negative test)” value is given as “NEG” in [2] (AST only report (Table 10), S. aureus ATCC 29213); “NEG” in assay [2] (ID and AST report (Table 11), S. aureus ATCC 29213); “POS” in assay [6] (AST only report (Table 10)); “POS” in [6] (ID and AST report (Table 11)). Also, the “Result (phenotypic positive/negative test)” value is “NEG” in assay [3] (AST only report (Table 10)); “NEG” in [3] (ID and AST report (Table 11)); “POS” in assay [4] (AST only report (Table 10)); “POS” in assay [4] (ID and AST report (Table 11)).
Take Trimethoprim-Sulfamethoxazole: the Result (MIC value) was found to be 0.25 µg/mL in assay [3] (AST only report (Table 10)); 0.25 µg/mL in assay [3] (ID and AST report (Table 11)).
On to `CC[C@H]1OC(=O)[C@H](C)[C@@H](O[C@H]2C[C@@](C)(OC)[C@@H](O)[C@H](C)O2)[C@H](C)[C@@H](O[C@@H]2O[C@H](C)C[C@H](N(C)C)[C@H]2O)[C@](C)(O)C[C@@H](C)C(=O)[C@H](C)[C@@H](O)[C@]1(C)O` [Erythromycin], for which the “Organism QC Range (MIC)” value in assay [2] (AST QC panel (Table 9), CLSI recommended isolate S. aureus ATCC 29213, in µg/mL (unit assumed)) was 0.25-1. The “Expected (MIC acceptance range)” value in assay [2] (AST only report (Table 10), S. aureus ATCC 29213, in µg/mL (unit assumed)) is 0.25-1. In assay [3] (AST only report (Table 10)), the Result (MIC value) stood at 0.6 µg/mL.
Turning to Ampicillin-Sulbactam, the Result (MIC value) in assay [7] (AST only report (Table 10)) came out at 16 µg/mL.
As for Piperacillin-Tazobactam, the “Susceptibility of the bacteria” value in the assay with Pseudomonas strains (Pseudomonas isolate of FIGS. 85A-F) is “susceptible”. In addition, the “Bacterial growth / replication pattern in presence of antibiotic” value in the assay with Pseudomonas strains (nutrient-depleted media (approx. 87% reduction in Mueller-Hinton nutrients), within 3.5 hours) is given as “substantially impaired growth”. Further, the “Antibiotic effect on filamentous cells” value in the assay on Pseudomonas strains (standard Mueller-Hinton media, 2 to 3.5 hours of exposure) is “no discernable antibiotic effect”. For the same molecule, the Result (MIC value) in assay [7] (AST only report (Table 10)) is 1 µg/mL; in [7] (ID and AST report (Table 11)), 1 µg/mL.
For `CO/N=C(\C(=O)N[C@@H]1C(=O)N2C(C(=O)O)=C(CSc3nc(=O)c(=O)[nH]n3C)CS[C@H]12)c1csc(N)n1` [Ceftriaxone], the “Organism QC Range (MIC)” value in [8] (AST QC panel (Table 9), CLSI recommended isolate E. coli ATCC 25922) is given as 0.03-0.12. Also, the “Expected (MIC acceptance range)” value in assay [8] (AST only report (Table 10)) was 0.03-0.125; in assay [8] (ID and AST report (Table 11)) it was 0.03-0.125. Moreover, the Result (MIC value) in [9] (AST only report (Table 10)) is 0.0525 µg/mL; in [9] (ID and AST report (Table 11)), 0.0525 µg/mL.
